Source: publication PMC5350466 (mBio, 2017)
Converted amounts (≈) assume the structure as drawn.

Columns and labels:
B. cenocepacia K56-2 = test: MIC by broth microdilution, parental strain; assay type: cell-based, Burkholderia cenocepacia; settings: broth microdilution in cation-adjusted MHB at 18 to 24 h; for MIC: Burkholderia cenocepacia, K562
BcnA [1] = target: T1, BcnA (Burkholderia cenocepacia, UniProt B4EE32); test: Antibiotic bioassay of sequestration by BcnA; assay type: binding; settings: 1.5 µM BcnA, 30 min at 37°C, 10-kDa cutoff filtration
T1 sequence (B4EE32 27-186): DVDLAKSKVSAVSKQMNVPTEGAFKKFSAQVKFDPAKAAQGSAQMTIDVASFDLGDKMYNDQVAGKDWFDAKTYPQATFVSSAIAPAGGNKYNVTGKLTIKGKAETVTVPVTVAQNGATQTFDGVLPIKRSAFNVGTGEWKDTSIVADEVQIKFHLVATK
Method: Antibiotic test solutions with or without 1.5 µM BcnA were incubated for 30 min at 37°C with rotation. The solutions were filtered through filter units with a 10-kDa cutoff by centrifugation at 7,500 × g, at 4°C for 10 min. The antibiotic concentrations in the filtrates were determined by spotting 5 µl onto sterile filter discs placed on agar plates swabbed with the test bacteria. Petri dishes (15-cm diameter) containing 40 ml of LB agar were swabbed with bacterial suspensions with an OD600 of 0.04. The plates were incubated at 37°C for 24 h. Each plate included four discs containing standard concentrations of the antibiotic alongside the discs impregnated with test and control antibiotic solutions. E. coli DH5α was used for bioassays of PmB, norfloxacin, ceftazidime, and gentamicin, and S. aureus USA300 was used for bioassays of rifampin. The theoretical disc contents of the test antibiotic solutions were 10, 5, 2, 30, and 10 µg for PmB, rifampin, norfloxacin, ceftazidime, and gentamicin, respectively. Standard antibiotic discs contained a 2-fold higher concentration than, the same concentration as, or a 2- or 4-fold lower concentration than the test antibiotic discs. After incubation, the clear zones of inhibition were measured and the antibiotic concentrations were determined from standard curves constructed from the standard antibiotic discs.

bcnA::luxCDABE = test: Luciferase expression assay, bcnA::luxCDABE; assay type: cell-based, Burkholderia cenocepacia; settings: antibiotic at concentrations near the MIC (sublethal), 3 h
bcnB::luxCDABE = test: Luciferase expression assay, bcnB::luxCDABE; assay type: cell-based, Burkholderia cenocepacia; settings: antibiotic at concentrations near the MIC (sublethal), 3 h
ΔbcnA pbcnA (Sa) = test: MIC by E test; assay type: cell-based, Burkholderia cenocepacia; settings: 24 h
K56-2 pSCRhaB2 = test: MIC by E test; assay type: cell-based; settings: Burkholderia cenocepacia, 24 h, read-out: MIC by Etest, K56-2 pSCRhaB2
BcnA [2] = target: T1, BcnA; test: In vitro binding assay: Nile red displacement from BcnA; settings: against 1.5 µM Nile red binding to 1.5 µM BcnA in PBS; read-out: binding inhibition constant (Ki)
Method: In vitro binding assays were performed as previously described ([23]), with a few modifications. Purified BCNs were prepared in phosphate-buffered saline (PBS, pH 7.4). Phospholipids and Nile red were prepared in DMSO. […] All spectra were corrected for background fluorescence determined from probe-into-buffer titrations. Fluorescence was measured with a Cary Eclipse fluorescence spectrophotometer (Varian) set at an excitation wavelength (λex) specific for each probe, as follows: Nile red, 550 nm; BODIPY phospholipids, 500 nm for fatty acyl BODIPY-labeled phosphocholine and 505 nm for head group BODIPY-labeled phosphoethanolamine. The emission spectrum for each probe was collected across the following wavelengths (λem): Nile red, 590 to 750 nm; BODIPY phospholipids, 510 to 665 nm. The background-corrected binding fluorescence with each probe was fitted to a one-site binding model as previously described for human AGP ([23]). The equilibrium binding affinity constant for the probe-BCN complex (Kd), the probe concentration needed to achieve half-maximum binding at equilibrium, was determined by nonlinear least-squares regression analysis of the binding isotherms with GraphPad Prism v 5.0 software (GraphPad Software, Inc.).
For probe displacement experiments, antibiotic solutions and fat-soluble vitamins (prepared in DMSO) diluted in PBS, pH 7.4, were titrated against a BCN-probe complex at a saturating concentration necessary to obtain the maximum fluorescence when bound. Probe displacement was measured as the corresponding decrease in fluorescence upon the progressive increase in the antibiotic concentration. The binding inhibition constants (Kis) of the test compounds were determined by nonlinear regression analysis with competition-binding equations for one-site binding calculated by GraphPad Prism v 5.0 software. The lower the Ki values, the higher the affinity of the molecule for BcnA. All fluorometric assays were conducted in duplicate three independent times.

ΔbcnA pSCRhaB2 = test: MIC by E test; assay type: cell-based, Burkholderia cenocepacia; settings: 24 h
[3] = system: B. cenocepacia ΔbcnB mutant; test: MIC by broth microdilution, ΔbcnB mutant; assay type: cell-based, Burkholderia cenocepacia; settings: broth microdilution in cation-adjusted MHB at 18 to 24 h
[4] = system: B. cenocepacia ΔbcnA mutant; test: MIC by broth microdilution, ΔbcnA mutant; assay type: cell-based, Burkholderia cenocepacia

Compound | MIC (B. cenocepacia K56-2) [µg/mL] | antibiotic sequestration by BcnA (BcnA [1]) | expression of bcnA::luxCDABE upon exposure to antibiotic (bcnA::luxCDABE) | Ki (BcnA [2]) [µM] | other results
CC[C@H]1OC(=O)[C@H](C)[C@@H](O[C@H]2C[C@@](C)(OC)[C@@H](O)[C@H](C)O2)[C@H](C)[C@@H](O[C@@H]2O[C@H](C)C[C@H](N(C)C)[C@H]2O)[C@](C)(O)C[C@@H](C)CN(C)[C@H](C)[C@@H](O)[C@]1(C)O [Azithromycin, azithromycin] | 64 (≈ 85.4 µM) |  |  |  | 
CC(C)(O/N=C(\C(=O)N[C@@H]1C(=O)N2C(C(=O)[O-])=C(C[n+]3ccccc3)CS[C@H]12)c1csc(N)n1)C(=O)O [Ceftazidime, ceftazidime] | 32 (≈ 58.5 µM) | sequestered | upregulated | 16900 | expression of bcnB::luxCDABE upon exposure to antibiotic (bcnB::luxCDABE): increased; MIC by Etest, ΔbcnA pbcnA (Sa) (ΔbcnA pbcnA (Sa)): 8 µg/mL (≈ 14.6 µM); MIC (K56-2 pSCRhaB2): 8 µg/mL (≈ 14.6 µM); MIC by Etest, ΔbcnA pSCRhaB2 (ΔbcnA pSCRhaB2): 2 μg/ml
O=C(O)c1cn(C2CC2)c2cc(N3CCNCC3)c(F)cc2c1=O [Cipro, ciprofloxacin] |  |  |  |  | MIC by Etest, ΔbcnA pbcnA (Sa) (ΔbcnA pbcnA (Sa)): 4 µg/mL (≈ 12.1 µM); MIC (K56-2 pSCRhaB2): 4 µg/mL (≈ 12.1 µM); MIC by Etest, ΔbcnA pSCRhaB2 (ΔbcnA pSCRhaB2): 2 μg/ml
CNC(C)C1CCC(N)C(OC2C(N)CC(N)C(OC3OCC(C)(O)C(NC)C3O)C2O)O1 (centres unmarked) [Gentamicin, gentamicin] | 2050 (≈ 4290 µM) | not | remained unchanged |  | 
C[C@@H](O)[C@H]1C(=O)N2C(C(=O)O)=C(S[C@@H]3CN[C@H](C(=O)N(C)C)C3)[C@H](C)[C@H]12 [Meropenem, meropenem] | 1 (≈ 2.61 µM) |  |  |  | 
CN(C)c1ccc(O)c2c1C[C@H]1C[C@H]3[C@H](N(C)C)C(O)=C(C(N)=O)C(=O)[C@@]3(O)C(O)=C1C2=O [Minocycline, minocycline] | 2 (≈ 4.37 µM) |  |  |  | 
CCn1cc(C(=O)O)c(=O)c2cc(F)c(N3CCNCC3)cc21 [Norfloxacin, norfloxacin] | 128 (≈ 401 µM) | sequestered | upregulated | 400 | expression of bcnB::luxCDABE upon exposure to antibiotic (bcnB::luxCDABE): increased
CO[C@H]1/C=C/O[C@@]2(C)Oc3c(C)c(O)c4c(O)c(c(/C=N/N5CCN(C)CC5)c(O)c4c3C2=O)NC(=O)/C(C)=C\C=C\[C@H](C)[C@H](O)[C@@H](C)[C@@H](O)[C@@H](C)[C@H](OC(C)=O)[C@@H]1C [Rifampicin, rifampin] | 256 (≈ 311 µM) | sequestered | upregulated | 16.5 | MIC by Etest, ΔbcnA pbcnA (Sa) (ΔbcnA pbcnA (Sa)): ≥ 64 µg/mL; MIC (K56-2 pSCRhaB2): ≥ 64 µg/mL; MIC by Etest, ΔbcnA pSCRhaB2 (ΔbcnA pSCRhaB2): 16 μg/ml
COc1cc(Cc2cnc(N)nc2N)cc(OC)c1OC [Trimethoprim, trimethoprim] | 8 (≈ 27.6 µM) |  |  |  | 
Cc1c(C)c2c(c(C)c1O)CC[C@@](C)(CCC[C@H](C)CCC[C@H](C)CCCC(C)C)O2 [Vit E, α-tocopherol] |  |  |  | 0.417 | 
menaquinone [Vit K2] |  |  |  | 0.569 | 
polymyxin B [PmB] |  | sequestered | upregulated |  | MIC ΔbcnB [3]: ≥ 4096 µg/mL; MIC K56-2 (B. cenocepacia K56-2): ≥ 4096 µg/mL; MIC ΔbcnA ([4]; broth microdilution in cation-adjusted MHB at 18 to 24 h): 2048 µg/mL; MIC reduction in the ΔbcnA mutant ([4]; ΔbcnA mutant relative to parental strain): 4 fold
